According to article PMC11303563 (Communications Medicine, 2024):
Several values for one entry are separate records, joined by “and”; a condition that tells them apart may be missing. Identical values can stand only once.

Assays:
[1] = test system: THR-regulated genes and lipid metabolism-related genes in the liver
[2] = test system: high-fat diet (HFD)-induced obesity model mice; experiment: Body weight of high-fat diet-induced obesity model mice; assay type: in vivo, C57BL/6J mice; set-up: Body weight, Mean Diff. ND vs. treated: unit not given here; conditions: for Body weight, 95.00% CI of diff. ND vs. treated / Body weight, Mean Diff. ND vs. treated: ND group as comparator; for Body weight, 95.00% CI of diff. ND vs. treated / Body weight, Mean Diff. ND vs. treated / Body weight, 95.00% CI of diff. Vehicle vs. treated / Body weight, Mean Diff. Vehicle vs. treated: Tukey's multiple comparisons test; for Body weight, Mean Diff. Vehicle vs. treated / Body weight, group mean (Fig. 3a) / Body weight, individual mice (Fig. 3a): in g (unit assumed); for Body weight, group mean (Fig. 3a) / Body weight, individual mice (Fig. 3a) / decrease of body weight compared to vehicle: HFD mice; for Body weight, group mean (Fig. 3a): n 10; for decrease of body weight compared to vehicle: 3 weeks
Experimental: The injection was given 6 h after light on. Food consumption and body weights were measured weekly. Food and water were provided to the animals ad libitum. The animals were treated according to the guidelines of Nagoya University, and all experimental procedures were approved by the Animal Experiment Committee of Nagoya University (A210715-003).
(§1) Epididymal adipose tissue was weighed.
(§2) Fig. 3 Effects of intraperitoneal injection of TH analogs on body weight and deposition of visceral fat. […] After three weeks of injection, body weight (a), and weight of the epididymal adipose tissue (b) were measured.

[3] = In vitro blood-brain barrier permeability assay (BBB kit RBT-24H); assay type: in vitro ADME, rat
Experimental: Therefore, we tested BBB transparency in vitro using the BBB kit RBT-24H (PharmaCo-Cell)[35]. […] Blood-brain barrier permeability assay The blood-brain barrier (BBB) transparency of TH analogs was assessed in vitro using RBT-24H (PharmaCo-Cell)[5] according to the manufacturer 's protocol. […] After 30 min, the assay buffer in the wells mimicking the abluminal side was collected, and the concentration of the compounds was measured using liquid chromatography-mass spectrometry (LC-MS). […] These tips were preconditioned with 20 μL of acetonitrile and 20 μL of 0.1% TFA in purified water. 100 μL of the samples were loaded onto the preconditioned tips, washed with 200 μL of DW, and then eluted with 10 μL of acetonitrile. Triazine (1% vol/vol) was added to the eluent as an internal standard. […] 3 μm; Imtakt, Kyoto, Japan). All the experiments were performed using an Ultimate 3000 UHPLC system coupled with a Q Exactive Plus Orbitrap mass spectrometer (Thermo Fisher Scientific). […] Data were shown as mean ± standard deviation (n=3).

[4] = test system: THRα; conditions: cited from earlier work
[5] = biological target: T1, full-length human THRα (Homo sapiens, UniProt P10827); experiment: [125I]-T3-displacement assay, THRα; conditions: from IC50 values THRα vs THRβ
T1 sequence (P10827 1-410 isoform P10827-2): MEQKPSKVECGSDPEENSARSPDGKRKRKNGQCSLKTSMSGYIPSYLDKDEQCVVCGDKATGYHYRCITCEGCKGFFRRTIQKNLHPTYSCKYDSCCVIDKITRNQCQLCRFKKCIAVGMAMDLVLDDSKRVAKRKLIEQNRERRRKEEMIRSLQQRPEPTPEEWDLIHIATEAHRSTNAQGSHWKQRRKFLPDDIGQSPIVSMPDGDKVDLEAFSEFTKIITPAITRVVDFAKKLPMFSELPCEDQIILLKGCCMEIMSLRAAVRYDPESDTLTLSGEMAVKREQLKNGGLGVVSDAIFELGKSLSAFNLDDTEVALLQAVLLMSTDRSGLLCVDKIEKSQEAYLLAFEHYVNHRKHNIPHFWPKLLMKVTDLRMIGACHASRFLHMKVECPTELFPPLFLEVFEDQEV
Experimental: The coding sequences of full-length human THRα and THRβ were amplified by PCR.
The PCR products of THRα and β were cloned into EcoRI–KpnI and EcoRI–XbaI sites of pTNT (Promega), respectively. The resultant expression vectors, pTNT-THRα and pTNT-THRβ, were used for the synthesis of THRs by in vitro translation.
THRα and THRβ were synthesized by in vitro translation using TNT T7 Quick Coupled Transcription and Translation kit (Promega) according to the manufacturer’s protocol. After incubation at 30 °C for 90 min, the reaction mixtures were stored at −80 °C until use.
The reaction mixture was incubated overnight at 4 °C. A nitrocellulose membrane (Optitran, 0.45 μm in pore size, Whatman) pre-blocked by E-400 buffer was placed on a dot-blot apparatus (Minifold I, GE Healthcare), and the reaction mixtures were filtered through the membrane followed by three washes with 200 μL E-400 buffer. […] Radioactive signals were scanned using Typhoon FLA9000 (GE Healthcare) and quantified by Image Quant TL software (GE Healthcare). The IC50 values for each competitor were calculated by fitting the dose–response data to the log (inhibitor) vs. response (three parameters) model using GraphPad Prism (version 8.0; GraphPad Software).
Data are shown as mean ± SD (n = 3). Data were fitted to the log (inhibitor) vs. response (three parameters) model using GraphPad Prism (version 8.0; GraphPad Software).

[6] = test system: high-fat diet (HFD)-induced obesity model mice; experiment: Weight of epididymal adipose tissue (visceral fat) in HFD mice; assay type: in vivo, C57BL/6J mice; conditions: for Fig. 3b (weight of epididymal adipose tissue), group mean (Mean 2): n=10; for Fig. 3b (weight of epididymal adipose tissue), group mean (Mean 2) / Fig. 3b (weight of epididymal adipose tissue), Mean Diff. ND vs. treatment (Tukey) / Fig. 3b (weight of epididymal adipose tissue), Mean Diff. Vehicle vs. treatment (Tukey) / Epididymal adipose weight, individual mice (Fig. 3b): in mg (unit assumed); for Fig. 3b (weight of epididymal adipose tissue), Mean Diff. ND vs. treatment (Tukey): ND minus treated; for Fig. 3b (weight of epididymal adipose tissue), Mean Diff. Vehicle vs. treatment (Tukey): Vehicle minus treated
Experimental: as §1, §2

[7] = test system: high-fat diet (HFD)-induced obesity model mice; experiment: Serum lipid analysis (total cholesterol, triglycerides) in HFD mice; assay type: in vivo, C57BL/6J mice; set-up: Serum TC (Fig. 4a), individual mouse values / Serum TG (Fig. 4b), individual mouse values / Serum TC (Fig. 4a), Mean Diff. ND vs. treatment (Tukey) / Serum TC (Fig. 4a), Mean Diff. Vehicle vs. treatment (Tukey) / Serum TC (Fig. 4a), group mean (Mean 2) / Mean Diff., ND vs. treated (Fig. 4b) / Mean Diff., Vehicle vs. treated (Fig. 4b) / Mean (Fig. 4b): unit not given here; conditions: for Serum TC (Fig. 4a), group mean (Mean 2) / Mean (Fig. 4b): n=10; for Serum TC (Fig. 4a), Mean Diff. ND vs. treatment (Tukey): ND minus treated; for Serum TC (Fig. 4a), Mean Diff. Vehicle vs. treatment (Tukey): Vehicle minus treated; for Mean Diff., ND vs. treated (Fig. 4b) / Mean Diff., Vehicle vs. treated (Fig. 4b): Tukey's multiple comparisons test; for Mean (Fig. 4b): group mean
Experimental: Fig. 4 Effects of TH analogs on the accumulation of lipids in mice. […] After 3 weeks of injection, serum and liver tissues were collected, and the amount of serum cholesterol (a), serum triglycerides (b), liver cholesterol (c), liver triglycerides (d), and liver total lipids (e) were measured.

[8] = HFD mice, 1 μmol/kg day, RT-qPCR, reference gene Rps18
[9] = liver gene expression, 1µmol dose group vs. Vehicle

Cc1cc(OCC(=O)O)cc(C)c1Cc1ccc(O)c(C(C)C)c1 [GC-1]
Dio1 expression in the liver, individual animal values ([1]; 1µmol, one value per animal): 3.829 and 3.919 and 5.168 and 4.354 and 3.692 and 2.159 and 3.566 and 3.314 and 5.1441 and 5.131
Ldlr expression in the liver, individual animal values ([1]; 1µmol, one value per animal): 1.223 and 2.2 and 0.6334 and 0.7002 and 0.6702 and 3.257 and 0.3372 and 1.534 and 1.675
Me1 expression in the liver, individual animal values ([1]; 1µmol, one value per animal): 1.623 and 3.346 and 4.729 and 3.444 and 1.386 and 2.548 and 5.3983 and 2.089 and 4.684 and 5.253
Pnpla2 expression in the liver, individual animal values ([1]; 1µmol, one value per animal): 2.545 and 1.795 and 3.166 and 2.343 and 2.009 and 2.4714 and 3.073 and 2.97 and 1.253 and 2.348
Srebp1c expression in the liver, individual animal values ([1]; 1µmol, one value per animal): 0.08164 and 0.06602 and 0.1318 and 0.09978 and 0.1458 and 0.0919 and 0.4057 and 0.2719 and 0.0552 and 0.07309
Thrsp expression in the liver, individual animal values ([1]; 1µmol, one value per animal): 1.4847 and 1.604 and 3.066 and 1.407 and 2.579 and 0.6637 and 2.019 and 1.066 and 1.315 and 1.484
liver expression of Dio1 vs vehicle [1, 8]: significantly upregulated
liver expression of Ldlr vs vehicle [1, 8]: not significantly different
liver expression of Me1 vs vehicle [1, 8]: significantly upregulated
liver expression of Pnpla2 vs vehicle [1, 8]: significantly higher
liver expression of Srebp1c vs vehicle [1, 8]: significantly lower
liver expression of Thrsp vs vehicle [1, 8]: increased
Pnpla2, Dunn's multiple comparisons test, Mean rank diff. (Vehicle vs. compound) [1, 9]: -16.8
Srebp1c, Dunn's multiple comparisons test, Mean rank diff. (Vehicle vs. compound) [1, 9]: 22.27
Pnpla2, Mean rank of treatment group (Mean rank 2) ([1]; liver gene expression, 1µmol dose group, Vehicle mean rank 8): 24.8
Srebp1c, Mean rank of treatment group (Mean rank 2) ([1]; liver gene expression, 1µmol dose group, Vehicle mean rank […]): 11.4
Body weight, 95.00% CI of diff. ND vs. treated ([2]; 0.1 µmol dose group): -9.046 to -0.3347
Body weight, Mean Diff. ND vs. treated ([2]; 0.1 µmol dose group): -4.69
Body weight, 95.00% CI of diff. Vehicle vs. treated ([2]; 0.1 µmol dose group): 5.485 to 13.92
Body weight, Mean Diff. Vehicle vs. treated ([2]; 0.1 µmol dose group): 9.704
Body weight, 95.00% CI of diff. ND vs. treated ([2]; 1 µmol dose group): -9.111 to -0.3997
Body weight, Mean Diff. ND vs. treated ([2]; 1 µmol dose group): -4.755
Body weight, 95.00% CI of diff. Vehicle vs. treated ([2]; 1 µmol dose group): 5.420 to 13.86
Body weight, Mean Diff. Vehicle vs. treated ([2]; 1 µmol dose group): 9.639
Body weight, group mean (Fig. 3a) ([2]; 0.1 µmol dose group): 33.21
Body weight, individual mice (Fig. 3a) ([2]; 0.1 µmol dose group): 29.83 and 31.33 and 29.67 and 36.57 and 36.31 and 35.71 and 35.26 and 34.18 and 33.67 and 29.56
Body weight, group mean (Fig. 3a) ([2]; 1 µmol dose group): 33.27
Body weight, individual mice (Fig. 3a) ([2]; 1 µmol dose group): 32.13 and 30.51 and 31.76 and 34.15 and 34.95 and 32.95 and 36.28 and 31.91 and 35.57 and 32.53
decrease of body weight compared to vehicle ([2]; i.p. 0.1 µmol/kg day): ~ 20%
decrease of body weight compared to vehicle ([2]; i.p. 1 µmol/kg day): ~ 20%
Abluminal concentration ([3]; 10 µM on luminal side, 30 min, mean ± standard deviation (n=3)): 0.0966 ± 0.0234 µM
Papp at 30 min, 10 µM ([3]; rat, 10 μM on luminal side, read-out: apparent permeability (Papp)): 14.6 ± 3.54 ×10⁻⁶ cm/s
lower affinity for THRα than T3 [4]: 10 fold
affinity to THRα lower than that to THRβ [5]: approximately 20 fold
Fig. 3b (weight of epididymal adipose tissue), group mean (Mean 2) ([6]; 0.1 µmol, HFD mice): 1486
Fig. 3b (weight of epididymal adipose tissue), Mean Diff. ND vs. treatment (Tukey) ([6]; 0.1 µmol): -802.3
Fig. 3b (weight of epididymal adipose tissue), Mean Diff. Vehicle vs. treatment (Tukey) ([6]; 0.1 µmol): 1372
Fig. 3b (weight of epididymal adipose tissue), group mean (Mean 2) ([6]; 1 µmol, HFD mice): 1093
Fig. 3b (weight of epididymal adipose tissue), Mean Diff. ND vs. treatment (Tukey) ([6]; 1 µmol): -410.1
Fig. 3b (weight of epididymal adipose tissue), Mean Diff. Vehicle vs. treatment (Tukey) ([6]; 1 µmol): 1765
Epididymal adipose weight, individual mice (Fig. 3b) ([6]; HFD mice, 0.1 µmol dose group): 1120.1 and 1287.3 and 1051.5 and 1562.9 and 1102.8 and 1733.2 and 1866.1 and 1900.9 and 1746.2 and 1485.7
Epididymal adipose weight, individual mice (Fig. 3b) ([6]; HFD mice, 1 µmol dose group): 1157.5 and 882.3 and 1400.3 and 1216.9 and 1046.3 and 975.7 and 1192.5 and 1112.9 and 1063.5 and 886.8
weight of the epididymal adipose tissue vs vehicle ([6]; HFD mice, i.p., dose not given (0.1 or 1 µmol/kg day), 3 weeks): decreased significantly
Serum TC (Fig. 4a), individual mouse values ([7]; 0.1 µmol, HFD mice): 76.25 and 108.417 and 114.042 and 114.792 and 113.958 and 112.208 and 91.25 and 101.875 and 101.042 and 98.458
Serum TG (Fig. 4b), individual mouse values ([7]; 0.1 µmol, HFD mice): 47.583 and 67.583 and 60.917 and 64.75 and 51.417 and 64.25 and 45.083 and 40.917 and 120.083
Serum TC (Fig. 4a), group mean (Mean 2) ([7]; 0.1 µmol, HFD mice): 103.2
Serum TC (Fig. 4a), Mean Diff. ND vs. treatment (Tukey) ([7]; 0.1 µmol): 76.19
Serum TC (Fig. 4a), Mean Diff. Vehicle vs. treatment (Tukey) ([7]; 0.1 µmol): 146.8
Serum TC (Fig. 4a), individual mouse values ([7]; 1 µmol, HFD mice): 114.667 and 103 and 123.208 and 101.042 and 100.208 and 100.542 and 101.667 and 117.708 and 116.875 and 87.208
Serum TG (Fig. 4b), individual mouse values ([7]; 1 µmol, HFD mice): 89.25 and 100.917 and 117.583 and 93.417 and 90.917 and 81.75 and 125.917 and 105.083 and 72.583 and 61.75
Serum TC (Fig. 4a), group mean (Mean 2) ([7]; 1 µmol, HFD mice): 106.6
Serum TC (Fig. 4a), Mean Diff. ND vs. treatment (Tukey) ([7]; 1 µmol): 72.81
Serum TC (Fig. 4a), Mean Diff. Vehicle vs. treatment (Tukey) ([7]; 1 µmol): 143.5
Mean Diff., ND vs. treated (Fig. 4b) ([7]; ND minus 0.1 µmol group): 84.09
Mean Diff., ND vs. treated (Fig. 4b) ([7]; ND minus 1 µmol group): 52.85
Mean Diff., Vehicle vs. treated (Fig. 4b) ([7]; Vehicle minus 0.1 µmol group): 53.09
Mean Diff., Vehicle vs. treated (Fig. 4b) ([7]; Vehicle minus 1 µmol group): 21.86
Mean (Fig. 4b) ([7]; 0.1 µmol, HFD mice): 62.68
Mean (Fig. 4b) ([7]; 1 µmol, HFD mice): 93.92
serum triglyceride level vs vehicle ([7]; HFD mice, i.p. 0.1 µmol/kg day, 3 weeks): decreased
